Patent US12338262B2 (Forward Therapeutics, Inc., priority 2022, dated 2025)

Molecular target: TNF-α (Homo sapiens, UniProt P01375)
Assay: TNF-α Induced HEK Blue Cellular Assay
Type: cell-based
Conditions: HEK Blue TNFα reporter cells, TNF-α 100 pg/ml, 24 hrs at 37° C., secreted alkaline phosphatase (QUANTI-Blue, 620 nm)
Procedure, shortened: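 HEK Blue TNFα reporter cells (10,000/well, DMEM + 10% FBS) treated with compound ([…] to 0.5 nM final) and stimulated with 100 pg/ml TNF-α for 24 h at 37 °C. Secreted alkaline phosphatase read with QUANTI-Blue at 620 nm; IC50 by 4-parameter logistic fit after background correction to stimulated/unstimulated DMSO controls.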

TNF-α, sequence (P01375 77-233 limits assumed): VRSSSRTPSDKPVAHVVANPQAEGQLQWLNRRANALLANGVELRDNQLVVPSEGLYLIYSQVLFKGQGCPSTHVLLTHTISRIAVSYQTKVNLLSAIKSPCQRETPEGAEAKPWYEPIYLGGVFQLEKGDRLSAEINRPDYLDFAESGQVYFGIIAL

`CC[C@@H](Nc1c(Cl)c(C)nc2cc(F)c(-c3ccc(P(C)(C)=O)nc3)nc12)c1ncccc1F` [Example 69, (R)-(5-(7-chloro-3-fluoro-8-((1-(3-fluoropyridin-2-yl)propyl)amino)-6-methyl-1,5-naphthyridin-2-yl)pyridin-2-yl)dimethylphosphine oxide] and `Cc1nc2cc(F)c(-c3ccc(P(C)(C)=O)nc3)nc2c(N[C@@H](C)c2ncccc2F)c1Cl` (single isomer, unassigned) [Example 117] cannot be ordered by IC50: no more than 1000 nM for the first, 1000 to 10000 nM for the second.

`Cc1nc2cc(F)c(-c3ccc(P(C)(C)=O)nc3)nc2c(NC(c2ncccc2F)C2CC2)c1Cl` (stereo not drawn) [Example 136, 3-chloro-N-[cyclopropyl(3-fluoropyridin-2-yl)methyl]-6-[6-(dimethylphosphoryl)pyridin-3-yl]-7-fluoro-2-methyl-1,5-naphthyridin-4-amine] and `Cc1nc2cc(F)c(-c3ccc(P(C)(C)=O)nc3)nc2c(N[C@H](C)c2ncccc2F)c1Cl` (single isomer, unassigned) [Example 116] cannot be ordered by IC50: no more than 1000 nM for the first, no more than 100 nM for the second.

`CCOP(=O)(OCC)c1ccc(-c2nc3c(N[C@H](C)c4cc(C#N)ccc4F)c(Cl)c(C)nc3cc2F)cn1` [Example 32, diethyl 5-(7-chloro-8-{[(1R)-1-(5-cyano-2-fluorophenyl)ethyl]amino}-3-fluoro-6-methyl-1,5-naphthyridin-2-yl)pyridin-2-ylphosphonate] and `COP(=O)(O)c1ccc(-c2nc3c(N[C@H](C)c4cc(C#N)ccc4F)c(Cl)c(C)nc3cc2F)cn1` [Example 21, ammonium methyl 5-(7-chloro-8-{[(1R)-1-(5-cyano-2-fluorophenyl)ethyl]amino}-3-fluoro-6-methyl-1,5-naphthyridin-2-yl)pyridin-2-ylphosphonate] cannot be ordered by IC50: no more than 100 nM for the first, no more than 1000 nM for the second.

`Cc1nc2cc(F)c(-c3cnc(P(C)(C)=O)nc3)cc2c(N[C@H](C)c2cccc(F)c2F)c1Cl` [Example 65, 3-chloro-N-[(1R)-1-(2,3-difluorophenyl)ethyl]-6-[2-(dimethylphosphoryl)pyrimidin-5-yl]-7-fluoro-2-methylquinolin-4-amine] and `Cc1nc2cc(F)c(-c3cnc(P(C)(C)=O)nc3)cc2c(N[C@H](C)c2cc(C#N)ccc2F)c1Cl` [Example 8, 3-[(1R)-1-({3-chloro-6-[2-(dimethylphosphoryl)pyrimidin-5-yl]-7-fluoro-2-methylquinolin-4-yl}amino)ethyl]-4-fluorobenzonitrile] cannot be ordered by IC50: no more than 1000 nM for the first, no more than 100 nM for the second.

`CC[C@@H](Nc1c(Cl)c(C)nc2cc(F)c(-c3cnc(P(C)(C)=O)nc3)nc12)c1ccccc1F` [Example 16, 3-chloro-6-[2-(dimethylphosphoryl)pyrimidin-5-yl]-7-fluoro-N-[(1R)-1-(2-fluorophenyl)propyl]-2-methyl-1,5-naphthyridin-4-amine] and `CC[C@@H](Nc1c(Cl)c(C)nc2cc(F)c(-c3ccc(P(C)(C)=O)nc3)nc12)c1ccccc1F` [Example 22, 3-chloro-6-[6-(dimethylphosphoryl)pyridin-3-yl]-7-fluoro-N-[(1R)-1-(2-fluorophenyl)propyl]-2-methyl-1,5-naphthyridin-4-amine] cannot be ordered by IC50: no more than 100 nM for the first, no more than 100 nM for the second.

`CC[C@@H](Nc1c(Cl)c(C)nc2cc(F)c(-c3ccc(P(C)(C)=O)nc3)cc12)c1ncccc1F` [Example 102, 3-chloro-6-[6-(dimethylphosphoryl)pyridin-3-yl]-7-fluoro-N-[(1R)-1-(3-fluoropyridin-2-yl)propyl]-2-methylquinolin-4-amine] and `CC[C@H](Nc1c(Cl)c(C)nc2cc(F)c(-c3ccc(P(C)(C)=O)nc3)c(F)c12)c1ncccc1F` [Example 73, (S)-(5-(3-chloro-5,7-difluoro-4-((1-(3-fluoropyridin-2-yl)propyl)amino)-2-methylquinolin-6-yl)pyridin-2-yl)dimethylphosphine oxide] cannot be ordered by IC50: no more than 1000 nM for the first, no more than 1000 nM for the second.

`CC[C@@H](Nc1c(Cl)c(C)nc2cc(F)c(-c3ccc(OCP(C)(C)=O)nc3)nc12)c1ncccc1F` [Example 108, 3-chloro-6-{6-[(dimethylphosphoryl)methoxy]pyridin-3-yl}-7-fluoro-N-[(1R)-1-(3-fluoropyridin-2-yl)propyl]-2-methyl-1,5-naphthyridin-4-amine] and `CC[C@H](Nc1c(Cl)c(C)nc2cc(F)c(-c3cnc(P(C)(C)=O)nc3)nc12)c1ncccc1F` [Example 132, 3-chloro-6-[2-(dimethylphosphoryl)pyrimidin-5-yl]-7-fluoro-N-[(1S)-1-(3-fluoropyridin-2-yl)propyl]-2-methyl-1,5-naphthyridin-4-amine] cannot be ordered by IC50: no more than 1000 nM for the first, no more than 1000 nM for the second.

`Cc1nc2cc(F)c(-c3ccc(P(C)(C)=O)nc3)nc2c(N[C@@H](C)c2cc(F)ccc2F)c1Cl` [Example 51, 3-chloro-N-[(1S)-1-(2,5-difluorophenyl)ethyl]-6-[6-(dimethylphosphoryl)pyridin-3-yl]-7-fluoro-2-methyl-1,5-naphthyridin-4-amine] and `Cc1cn(-c2ccc(F)c([C@@H](C)Nc3c(Cl)c(C)nc4cc(F)c(-c5ccc(P(C)(C)=O)nc5)nc34)c2)cn1` [Example 66, 3-chloro-6-[6-(dimethylphosphoryl)pyridin-3-yl]-7-fluoro-N-[(1R)-1-[2-fluoro-5-(4-methylimidazol-1-yl)phenyl]ethyl]-2-methyl-1,5-naphthyridin-4-amine] cannot be ordered by IC50: no more than 100 nM for the first, no more than 1000 nM for the second.

`Cc1nc2cc(F)c(-c3ccc(P(C)(C)=O)nc3)nc2c(N[C@H](C)c2cccc(C(F)F)c2)c1Cl` [Example 92, 3-chloro-N-[(1R)-1-[3-(difluoromethyl)phenyl]ethyl]-6-[6-(dimethylphosphoryl)pyridin-3-yl]-7-fluoro-2-methyl-1,5-naphthyridin-4-amine] and `Cc1nc2cc(F)c(-c3ccc(P(C)(C)=O)nc3)nc2c(N[C@H](C)c2cccc(C#N)c2)c1Cl` [Example 43, 3-[(1R)-1-({3-chloro-6-[6-(dimethylphosphoryl)pyridin-3-yl]-7-fluoro-2-methyl-1,5-naphthyridin-4-yl}amino)ethyl]benzonitrile] cannot be ordered by IC50: no more than 100 nM for the first, no more than 100 nM for the second.

First: Cc1nc2cc(F)c(-c3ccc(P(C)(C)=O)nc3)cc2c(N[C@H](C)c2cc(C#N)ccc2F)c1Cl [Example 10, 3-[(1R)-1-({3-chloro-6-[6-(dimethylphosphoryl)pyridin-3-yl]-7-fluoro-2-methylquinolin-4-yl}amino)ethyl]-4-fluorobenzonitrile]
Second: Cc1nc2cc(F)c(-c3ccc(P(C)(C)=O)nc3)nc2c(N[C@H](CO)c2cc(C#N)ccc2F)c1Cl (single isomer, unassigned) [Example 63]
The IC50 of the first is lower: no more than 100 nM for the first, 10000 to 30000 nM for the second. The first is the more potent here.

Compared with `Cc1nc2cc(F)c(-c3cnc(P(C)(C)=O)c(F)c3)nc2c(N[C@H](C)c2cc(F)cc(F)c2)c1Cl` [Example 128, 3-chloro-N-[(1R)-1-(3,5-difluorophenyl)ethyl]-6-[6-(dimethylphosphoryl)-5-fluoropyridin-3-yl]-7-fluoro-2-methyl-1,5-naphthyridin-4-amine], `CC[C@@H](Nc1c(Cl)c(C)nc2cc(F)c(-c3ccc(P(C)(C)=O)nc3)nc12)c1cc(F)cc(F)c1` [Example 147, 3-chloro-N-[(1R)-1-(3,5-difluorophenyl)propyl]-6-[6-(dimethylphosphoryl)pyridin-3-yl]-7-fluoro-2-methyl-1,5-naphthyridin-4-amine] is lower in IC50: 10000 to 30000 nM for the first, 1000 to 10000 nM for the second. The second is the more potent here.

`Cc1cc(P(C)(C)=O)ncc1-c1nc2c(N[C@H](C)c3ccccc3F)c(Cl)c(C)nc2cc1F` [Example 62, 3-chloro-6-[6-(dimethylphosphoryl)-4-methylpyridin-3-yl]-7-fluoro-N-[(1R)-1-(2-fluorophenyl)ethyl]-2-methyl-1,5-naphthyridin-4-amine] and `Cc1nc2cc(F)c(-c3ccc(P(C)(C)=O)nc3)nc2c(NC(C)c2ncccc2F)c1Cl` (stereo not drawn) [Example 94, 3-chloro-6-[6-(dimethylphosphoryl)pyridin-3-yl]-7-fluoro-N-[1-(3-fluoropyridin-2-yl)ethyl]-2-methyl-1,5-naphthyridin-4-amine] cannot be ordered by IC50: no more than 1000 nM for the first, no more than 1000 nM for the second.

First: Cc1nc2cc(F)c(-c3ccc(P4(=O)CCOCC4)nc3)cc2c(N[C@H](C)c2cccc(F)c2F)c1Cl [Example 103, 4-[5-(3-chloro-4-{[(1R)-1-(2,3-difluorophenyl)ethyl]amino}-7-fluoro-2-methylquinolin-6-yl)pyridin-2-yl]-1,4lambda5-oxaphosphinan-4-one]
Second: Cc1nc2cc(F)c(-c3cnc(OCP(C)(C)=O)nc3)nc2c(N[C@H](C)c2cccc(F)c2F)c1Cl [Example 124, 3-chloro-N-[(1R)-1-(2,3-difluorophenyl)ethyl]-6-{2-[(dimethylphosphoryl)methoxy]pyrimidin-5-yl}-7-fluoro-2-methyl-1,5-naphthyridin-4-amine]
The IC50 of the first is higher: 10000 to 30000 nM for the first, no more than 1000 nM for the second.

`Cc1nc2cc(F)c(-c3ccc(P(C)(C)=O)nc3)nc2c(N[C@H](c2cc(F)cc(F)c2)C2CC2)c1Cl` [Example 139, 3-chloro-N—[(S)-cyclopropyl(3,5-difluorophenyl)methyl]-6-[6-(dimethylphosphoryl)pyridin-3-yl]-7-fluoro-2-methyl-1,5-naphthyridin-4-amine] and `Cc1nc2cc(F)c(-c3cnc(P(C)(C)=O)nc3)nc2c(N[C@H](c2cc(C#N)ccc2F)C(F)F)c1Cl` [Example 38, (R)-3-(1-((3-chloro-6-(2-(dimethylphosphoryl)pyrimidin-5-yl)-7-fluoro-2-methyl-1,5-naphthyridin-4-yl)amino)-2,2-difluoroethyl)-4-fluorobenzonitrile] cannot be ordered by IC50: no more than 1000 nM for the first, no more than 1000 nM for the second.

`Cc1nc2ccc(-c3cnc(P(C)(C)=O)nc3)nc2c(N[C@H](C)c2cc(C#N)ccc2F)c1Cl` [Example 41, 3-[(1R)-1-({3-chloro-6-[2-(dimethylphosphoryl)pyrimidin-5-yl]-2-methyl-1,5-naphthyridin-4-yl}amino)ethyl]-4-fluorobenzonitrile] and `Cc1nc2cc(F)c(-c3cnc(P(C)(C)=O)nc3)nc2c(N[C@@H](c2cc(C#N)ccc2F)C(F)F)c1Cl` [Example 36, (S)-3-(1-((3-chloro-6-(2-(dimethylphosphoryl)pyrimidin-5-yl)-7-fluoro-2-methyl-1,5-naphthyridin-4-yl)amino)-2,2-difluoroethyl)-4-fluorobenzonitrile] cannot be ordered by IC50: no more than 1000 nM for the first, no more than 1000 nM for the second.
